Reference: patent US20110076293A1, “TRIPTOLIDE DERIVATIVES FOR MODULATION OF APOPTOSIS AND IMMUNOSUPPRESSION” (priority 2002, published 2011)
Read-outs that look alike come from different tables or passages of the source.

Tests used:
[1] = system: Jurkat human T lymphocyte cell line; test: Apoptosis assay (Annexin V) of compounds incubated with human serum; settings: for EC50: read-out: ED50 (nM) in apoptosis assay after incubation with serum, 37° C.
Procedure, shortened: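 Test compounds at 20 mM were preincubated in pooled human serum at 37° C for varying times, then serially diluted to final 1–10,000 nM. Jurkat cells (1×10^5 per well) were exposed for 24 h at 37° C, and apoptosis was scored by Annexin V-FITC flow cytometry. ED50 came from dose-response curves, and % conversion was expressed relative to the triptolide ED50 in the same serum.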

in vitro = settings: incomplete conversion to triptolide, 48 hr incubation
Protocol: Compounds of formula I, as shown in Table 1 above and in the Examples, were assayed for their capacity to induce apoptosis in cells from the Jurkat human T lymphocyte cell line, after incubation with pooled human serum for varying periods of time at 37° C. (see Example 19). An ester prodrug, triptolide-14-succinate, designated PG490-88, was included for comparison. The extent of conversion to triptolide after such incubation was also independently determined by HPLC analysis.
Prodrug conversions to triptolide as determined independently by HPLC are given in […].

[2] = Table 3, human serum, 0 hr, 10000 nM
[3] = Table 3, human serum, 48 hr, 1 nM
[4] = Table 3, human serum, 48 hr, 3 nM
[5] = Table 3, human serum, 48 hr, 10 nM
[6] = Table 3, human serum, 48 hr, 30 nM
[7] = Table 3, human serum, 48 hr, 100 nM
[8] = Table 3, human serum, 48 hr, 300 nM
[9] = Table 3, human serum, 48 hr, 1000 nM
[10] = Table 3, human serum, 48 hr, 3000 nM
[11] = Table 3, human serum, 48 hr, 10000 nM
[12] = Table 4, serum, 48 hr, 10000 nM
[13] = Table 5, human serum (48 hrs), 1 nM
[14] = Table 5, human serum (48 hrs), 3 nM
[15] = Table 5, human serum (48 hrs), 10 nM
[16] = Table 5, human serum (48 hrs), 30 nM
[17] = Table 5, human serum (48 hrs), 100 nM
[18] = Table 5, human serum (48 hrs), 300 nM
[19] = Table 5, human serum (48 hrs), 1000 nM
[20] = Table 5, human serum (48 hrs), 3000 nM
[21] = incubation time in human serum 0.5 hours
[22] = incubation time in human serum 1 hour
[23] = incubation time in human serum 24 hours
[24] = incubation time in human serum 48 hours
[25] = after 48 hr. incubation in human serum

In the case of `CC(C)[C@]12O[C@H]1[C@@H]1O[C@]13[C@]1(O[C@H]1C[C@H]1C4=C(CC[C@@]13C)C(=O)OC4)[C@@H]2O` [PG490, Triptolide], the “% apoptotic cells at given concentration (nM)” value (“% apoptotic cells” below) [1, 2] is reported as 94.9%, the “% apoptotic cells” value [1, 3] is reported as 8.5% and the “% apoptotic cells” value [1, 4] is reported as 8.5%. For the same molecule, the “% apoptotic cells” value [1, 5] was 8.5%, the “% apoptotic cells” value [1, 6] was 26.2% and the “% apoptotic cells” value [1, 7] was 91.7%. For the same molecule, the “% apoptotic cells” value [1, 8] was 93.4%, the “% apoptotic cells” value [1, 9] was 94.6% and the “% apoptotic cells” value [1, 10] was 95.2%. For the same molecule, the “% apoptotic cells” value [1, 11] was 95.4%, the “% apoptotic cells” value ([1]; Table 3, medium only, 10000 nM) was 96.5% and the “% apoptotic cells” value ([1]; Table 4, medium, 10000 nM) was 93.4%. For the same molecule, the “% apoptotic cells” value ([1]; Table 4, serum, 0 hr, 10000 nM) was 92.1%, the “% apoptotic cells” value ([1]; Table 4, serum, 48 hr, 0.03 nM) was 7.0% and the “% apoptotic cells” value ([1]; Table 4, serum, 48 hr, 0.1 nM) was 6.9%. For the same molecule, the “% apoptotic cells” value ([1]; Table 4, serum, 48 hr, 0.3 nM) was 6.8%, the “% apoptotic cells” value ([1]; Table 4, serum, 48 hr, 1 nM) was 6.4% and the “% apoptotic cells” value ([1]; Table 4, serum, 48 hr, 3 nM) was 7.0%. For the same molecule, the “% apoptotic cells” value ([1]; Table 4, serum, 48 hr, 10 nM) was 7.1%, the “% apoptotic cells” value ([1]; Table 4, serum, 48 hr, 30 nM) was 29.4% and the “% apoptotic cells” value ([1]; Table 4, serum, 48 hr, 100 nM) was 90.9%. For the same molecule, the “% apoptotic cells” value ([1]; Table 4, serum, 48 hr, 300 nM) was 93.0%, the “% apoptotic cells” value ([1]; Table 4, serum, 48 hr, 1000 nM) was 93.2% and the “% apoptotic cells” value ([1]; Table 4, serum, 48 hr, 3000 nM) was 94.6%. The “% apoptotic cells” value [1, 12] was 94.2%, the “% apoptotic cells” value [1, 13] was 8.8% and the “% apoptotic cells” value [1, 14] was 8.5%. The “% apoptotic cells” value [1, 15] was 8.6%, the “% apoptotic cells” value [1, 16] was 15.9% and the “% apoptotic cells” value [1, 17] was 86.5%. The “% apoptotic cells” value [1, 18] was 90.7%, the “% apoptotic cells” value [1, 19] was 91.7% and the “% apoptotic cells” value [1, 20] was 93.1%. For the same molecule, the “% apoptotic cells” value ([1]; Table 5, medium, 3000 nM) was 93.7%.
In the case of `CC(C)[C@]12O[C@H]1[C@@H]1O[C@]13[C@]1(O[C@H]1C[C@H]1C4=C(CC[C@@]13C)C(=O)OC4)[C@@H]2OC(=O)CCC(=O)O` [PG490-88, triptolide-14-succinate, reference compound], the “% apoptotic cells” value [1, 2] is reported as 89.2%, the “% apoptotic cells” value [1, 3] is reported as 7.8% and the “% apoptotic cells” value [1, 4] is reported as 8.1%. The “% apoptotic cells” value [1, 5] was 7.8%, the “% apoptotic cells” value [1, 6] was 9.1% and the “% apoptotic cells” value [1, 7] was 51.5%. The “% apoptotic cells” value [1, 8] was 92.1%, the “% apoptotic cells” value [1, 9] was 93.9% and the “% apoptotic cells” value [1, 10] was 94.1%. For the same molecule, the “% apoptotic cells” value [1, 11] was 95.1%, the “% apoptotic cells” value ([1]; Table 3, medium only, 10000 nM) was 93.8% and the “% apoptotic cells” value ([1]; Table 4, medium, 10000 nM) was 89.7%. The “% apoptotic cells” value ([1]; Table 4, serum, 0 hr, 10000 nM) was 82.9%, the “% apoptotic cells” value ([1]; Table 4, serum, 48 hr, 0.03 nM) was 6.6% and the “% apoptotic cells” value ([1]; Table 4, serum, 48 hr, 0.1 nM) was 6.5%. For the same molecule, the “% apoptotic cells” value ([1]; Table 4, serum, 48 hr, 0.3 nM) was 7.0%, the “% apoptotic cells” value ([1]; Table 4, serum, 48 hr, 1 nM) was 6.0% and the “% apoptotic cells” value ([1]; Table 4, serum, 48 hr, 3 nM) was 6.2%. For the same molecule, the “% apoptotic cells” value ([1]; Table 4, serum, 48 hr, 10 nM) was 6.2%, the “% apoptotic cells” value ([1]; Table 4, serum, 48 hr, 30 nM) was 6.8% and the “% apoptotic cells” value ([1]; Table 4, serum, 48 hr, 100 nM) was 30.5%. For the same molecule, the “% apoptotic cells” value ([1]; Table 4, serum, 48 hr, 300 nM) was 89.6%, the “% apoptotic cells” value ([1]; Table 4, serum, 48 hr, 1000 nM) was 92.6% and the “% apoptotic cells” value ([1]; Table 4, serum, 48 hr, 3000 nM) was 92.8%. The “% apoptotic cells” value [1, 12] was 93.9%, the “% apoptotic cells” value [1, 13] was 8.6% and the “% apoptotic cells” value [1, 14] was 9.3%. For the same molecule, the “% apoptotic cells” value [1, 15] was 8.7%, the “% apoptotic cells” value [1, 16] was 7.8% and the “% apoptotic cells” value [1, 17] was 23.3%. For the same molecule, the “% apoptotic cells” value [1, 18] was 88.4%, the “% apoptotic cells” value [1, 19] was 90.5% and the “% apoptotic cells” value [1, 20] was 91.7%. The “% apoptotic cells” value ([1]; Table 5, medium, 3000 nM) was 64.8%, the “Conversion, as relative ED50 compared to triptolide (%)” value (shortened to “Conversion, as relative ED50 … (%)”) [1, 21] was 2% and the “Conversion, as relative ED50 … (%)” value [1, 22] was 2%. For the same molecule, the “Conversion, as relative ED50 … (%)” value [1, 23] was 18%, the “Conversion, as relative ED50 … (%)” value [1, 24] was 43% and the EC50 [1, 21] was 2580 nM. For the same molecule, the EC50 [1, 22] was 2270 nM, the EC50 [1, 23] was 328 nM and the EC50 [1, 24] was 147 nM. For the same molecule, the “max. conversion at 48 hr in human plasma by HPLC” value (in vitro) was “max. 26%”.
With `CCNC(=O)O[C@@H]1[C@@]2(C(C)C)O[C@H]2[C@@H]2O[C@]23[C@]12O[C@H]2C[C@H]1C2=C(CC[C@@]13C)C(=O)OC2` [PG666, Triptolide 14-Ethyl Carbamate] the “% apoptotic cells” value [1, 2] was 93.6%, the “% apoptotic cells” value [1, 3] was 13.4% and the “% apoptotic cells” value [1, 4] was 14.4%. For the same molecule, the “% apoptotic cells” value [1, 5] was 14.0%, the “% apoptotic cells” value [1, 6] was 10.1% and the “% apoptotic cells” value [1, 7] was 11.0%. The “% apoptotic cells” value [1, 8] was 20.6%, the “% apoptotic cells” value [1, 9] was 91.0% and the “% apoptotic cells” value [1, 10] was 92.9%. For the same molecule, the “% apoptotic cells” value [1, 11] was 93.5%, the “% apoptotic cells” value ([1]; Table 3, medium only, 10000 nM) was 94.3% and the “% apoptotic cells” value ([1]; Table 4, medium, 10000 nM) was 92.6%. The “% apoptotic cells” value ([1]; Table 4, serum, 0 hr, 10000 nM) was 87.2%, the “% apoptotic cells” value ([1]; Table 4, serum, 48 hr, 0.03 nM) was 39.9% and the “% apoptotic cells” value ([1]; Table 4, serum, 48 hr, 0.1 nM) was 40.7%. For the same molecule, the “% apoptotic cells” value ([1]; Table 4, serum, 48 hr, 0.3 nM) was 40.8%, the “% apoptotic cells” value ([1]; Table 4, serum, 48 hr, 1 nM) was 41.3% and the “% apoptotic cells” value ([1]; Table 4, serum, 48 hr, 3 nM) was 39.8%. The “% apoptotic cells” value ([1]; Table 4, serum, 48 hr, 10 nM) was 39.8%, the “% apoptotic cells” value ([1]; Table 4, serum, 48 hr, 30 nM) was 39.1% and the “% apoptotic cells” value ([1]; Table 4, serum, 48 hr, 100 nM) was 40.2%. For the same molecule, the “% apoptotic cells” value ([1]; Table 4, serum, 48 hr, 300 nM) was 44.5%, the “% apoptotic cells” value ([1]; Table 4, serum, 48 hr, 1000 nM) was 88.6% and the “% apoptotic cells” value ([1]; Table 4, serum, 48 hr, 3000 nM) was 96.8%. For the same molecule, the “% apoptotic cells” value [1, 12] was 92.3%, the “% apoptotic cells” value [1, 13] was 9.8% and the “% apoptotic cells” value [1, 14] was 10.9%. The “% apoptotic cells” value [1, 15] was 10.4%, the “% apoptotic cells” value [1, 16] was 10.2% and the “% apoptotic cells” value [1, 17] was 9.5%. For the same molecule, the “% apoptotic cells” value [1, 18] was 14.9%, the “% apoptotic cells” value [1, 19] was 87.7% and the “% apoptotic cells” value [1, 20] was 91.0%. For the same molecule, the “% apoptotic cells” value ([1]; Table 5, medium, 1 nM) was 13.9%, the “% apoptotic cells” value ([1]; Table 5, medium, 3 nM) was 13.1% and the “% apoptotic cells” value ([1]; Table 5, medium, 10 nM) was 13.4%. The “% apoptotic cells” value ([1]; Table 5, medium, 30 nM) was 13.0%, the “% apoptotic cells” value ([1]; Table 5, medium, 100 nM) was 13.2% and the “% apoptotic cells” value ([1]; Table 5, medium, 300 nM) was 14.2%. For the same molecule, the “% apoptotic cells” value ([1]; Table 5, medium, 1000 nM) was 14.1%, the “% apoptotic cells” value ([1]; Table 5, medium, 3000 nM) was 92.1% and the “apoptotic activity (in words)” value [1, 25] was “more active than PG688”. The “concentration for equal apoptotic activity relative to PG490 (triptolide)” value [1, 25] was roughly 10 fold.
